Data from US9789114B2, “Compounds as HIF-1α inhibitors and manufacturing process thereof” (DONGGUK UNIVERSITY INDUSTRY-ACADEMIC COOPERATION FOUNDATION, priority 2011, dated 2017).
Read-outs that look alike come from different tables or passages of the source.

Legend:
[1] = test system: HIF-1α-mediated HRE transcriptional activity; test: Assay for inhibition of HIF-1α-mediated transcriptional activity (HRE reporter assay); type: cell-based, human; details: Homo sapiens, HCT-116, HCT116 cells, 12 hours under hypoxia (1% O2), read-out: Inhibitory activity against HIF-1α (10 μM)
In short: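 HCT116 human colon cancer cells co-transfected with pGL3 luciferase reporter carrying six HRE copies from human VEGF plus Renilla control, then treated with 0–20 μM compound for 12 h under hypoxia (1% O2). Inhibition taken from dual-luciferase reporter activity in lysates.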

HIF-1α = biological target: T1, HIF-1α (Homo sapiens, UniProt Q16665); test: Inhibition of hypoxia-induced HIF-1α accumulation, western blot in HCT116 cells; type: cell-based; details: HCT116, hypoxia 1% O2, 0-30 μM, 12 hours, FIG. 1
T1 construct: endogenous in cells; host or cells: HCT116 human colon cancer cells (ATCC #CCL-247)
T1 sequence (Q16665 whole entry): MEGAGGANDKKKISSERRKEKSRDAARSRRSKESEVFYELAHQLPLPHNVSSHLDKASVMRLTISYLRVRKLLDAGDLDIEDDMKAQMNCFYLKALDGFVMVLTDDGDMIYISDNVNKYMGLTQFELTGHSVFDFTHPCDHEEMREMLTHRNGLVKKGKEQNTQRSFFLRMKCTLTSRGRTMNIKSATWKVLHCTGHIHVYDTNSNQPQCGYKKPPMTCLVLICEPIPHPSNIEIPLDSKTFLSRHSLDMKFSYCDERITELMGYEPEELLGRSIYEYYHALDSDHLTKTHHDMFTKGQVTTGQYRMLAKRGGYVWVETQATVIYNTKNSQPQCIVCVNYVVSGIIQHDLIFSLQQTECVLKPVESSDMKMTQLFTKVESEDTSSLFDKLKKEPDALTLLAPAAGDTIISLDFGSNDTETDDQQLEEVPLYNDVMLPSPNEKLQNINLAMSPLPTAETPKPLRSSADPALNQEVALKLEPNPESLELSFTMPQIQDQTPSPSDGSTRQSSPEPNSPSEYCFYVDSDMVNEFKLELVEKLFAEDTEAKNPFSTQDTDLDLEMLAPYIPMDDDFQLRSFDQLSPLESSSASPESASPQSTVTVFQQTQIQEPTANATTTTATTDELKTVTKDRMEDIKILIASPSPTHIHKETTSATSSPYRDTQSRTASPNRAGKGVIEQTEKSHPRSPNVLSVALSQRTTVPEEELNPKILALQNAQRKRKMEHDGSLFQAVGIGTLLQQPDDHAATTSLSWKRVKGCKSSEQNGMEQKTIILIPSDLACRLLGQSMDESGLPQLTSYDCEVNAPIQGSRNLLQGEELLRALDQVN
Procedure: <Experiment 2> In Vitro Studies for Inhibition of Hypoxia-Induced HIF-1α Accumulation
Inhibition of HIF-1α accumulation by the compounds according to the present invention was determined in HCT116 human colon cancer cells. In particular, western blot analysis was used to identify the compounds, I-3, I-6, I-8, I-16, I-19, I-22˜I-24, and I-27˜I-36, which inhibited HIF-1α accumulation under hypoxia.
(§1) First, HCT116 human colon cancer cells (ATCC #CCL-247) were plated at the concentration of 2×10^5 cells/ml. After 24 hours, the cells were incubated under hypoxia (1% O2, 94% N2, and 5% CO2, expressed as 1% O2 in FIG. 1) for 4 hours in order to induce HIF-la accumulation. Cells were treated with the compounds at various concentrations (0, 3, 10, 20, and 30 μM) for 12 hours under hypoxia. The cells were then harvested, and lysed in RIPA buffer to obtain nuclear extracts. Cells grown at 20% O2 (normoxia) were used as control groups to compare HIF-1α-mediated gene expression under each condition. 30 μg of the nuclear extracts per sample was separated by SDS-PAGE (sodium dodecyl sulfate-polyacrylamide gel electrophoresis), and was then transferred to PVDF (polyvinylidene fluoride membrane) membranes. After membranes were probed with HIF-1α antibodies (R&D System), HIF-1α proteins were detected with HRP-conjugated secondary antibodies (Amersham-Pharmacia). GAPDH (Glyceraldehyde 3-phosphate dehydrogenase) was used as an internal control for loading in western blot analysis.

GAPDH = GAPDH expression level (internal control) in western blot, HCT116 cells; type: cell-based, human; details: HCT116, hypoxia 1% O2, 0-30 μM, 12 hours, FIG. 1
Procedure: as §1

[2] = test system: Chick embryo chorioallantoic membrane; test: CAM (chick embryo chorioallantoic membrane) assay; type: in vivo; details: 10-20 μg on coverslip, 2 days, FIG. 2
Procedure: CAM (Chick embryo chorioallantoic membrane) assay was conducted as an in vivo model to determine whether the compounds according to the present invention, I-3, I-6, I-19, and I-22, had anti-angiogenic effects or not. DMSO-treated groups were used as negative controls.
According to the present invention, CAM assay was performed as follows.
Fertilized eggs were incubated periodically rolling at 37° C. with 50% humidity for 2-3 days. When eggs were erected, approximately 3 ml of albumin was extracted from the sharp edge of the eggs using a syringe. The hole of the eggs was sealed with a tape to prevent from dryness and contamination, and the hole of the eggs was put down and incubated for 2 to 3 days. After punching a hole with 1.5 cm diameter in the round part of eggs, opaque membrane was removed carefully. The compounds (10-20 μg) according to the present invention were placed and spread on thermanox coverslip equally to dry, and then the hole in the round part of eggs put on the upper part of the fertilized eggs that vessels grew. The eggs were examined under the dissecting microscope and the results were given in FIG. 2, after covering the hole with a coverglass to protect it from contamination for 2 days.

[3] = test system: HCT116 colon cancer cells; test: In vivo anti-cancer activity by oral administration, HCT116 tumor in nude mice; set-up: species or system BALB/c nu/nu mice; details: for inhibition in vivo at 20 mg/kg: Mus musculus
Procedure: <Example 4> In Vivo Anti-Cancer Activity of Compounds by Oral Administration
(§2) In vivo anti-cancer activity of the compounds according to the present invention, I-3, I-6, I-8, I-16, I-19, I-22, I-23, and I-24, was measured in mice to evaluate in vivo efficacy by oral administration. Specifically, the nude mice were divided into test groups and control groups, each consisting of 4 mice. In vivo efficacy was evaluated by measuring body weight, tumor volume, and tumor weight.
(§3) Female nude mice 6 weeks old (BALB/c nu/nu, Charles River) were bred in germ-free breeding rooms maintained at constant temperature and humidity. After the nude mice were anesthetized, HCT116 colon cancer cells were implanted at a count of […] cells/mouse into the rectum in BALB/c nu/nu mice and then the incisions were closed with surgical clips. The size of tumor was measured by a caliper. When the size of transplanted tumor reached to 50˜60 mm^3, the above compounds according to the present invention were administered. In more detail, after the above compounds in test groups were dissolved at concentration of 20 mg/kg in a solvent containing 80% of physiological saline, 10% of DMAC (dimethylacetamide), and 10% Tween 80 (hereinafter referred to as ‘Solvent A’), […] of dissolved compounds were orally administered once a day. Mice in control groups were treated with […] of Solvent A alone once daily.
(§4) Tumor volume and body weight were measured to identify in vivo anti-cancer activity of the compounds according to the present invention by repetitive oral administration. Tumor volume and tumor growth inhibition (TGI) in Table 2 were calculated according to the below Mathematic FIG. 1 and FIG. 2, respectively. Tumor growth inhibition was converted to a percentage in Table 2.

[4] = Body weight change and side effects during 14 days of oral treatment in nude mice; type: in vivo, BALB/c nu/nu mice
Procedure: as §2, §3, §4
Moreover, severe side effects and statistically significant changes of body weight in all mice treated compounds were not shown for 14 days, comparing to control groups treated with vehicle. (Table 3)

[5] = day 3, 20 mg/kg oral once a day
[6] = day 5, 20 mg/kg oral once a day
[7] = day 7, 20 mg/kg oral once a day
[8] = day 10, 20 mg/kg oral once a day
[9] = day 12, 20 mg/kg oral once a day
[10] = day 14, 20 mg/kg oral once a day

Cc1cc(C23CC4CC(CC(C4)C2)C3)ccc1OCC(=O)N1CCOCC1 [Compound I-6, 2-(4-(Adamantan-1-yl)-2-methylphenoxy)-1-morpholinoethanone]
inhibition at 10 µM [1]: 76 to 100% | HIF-1α degradation (HIF-1α): promoted HIF-1α degradation | GAPDH expression levels (GAPDH): did not affect GAPDH expression levels | formation of vessels (anti-angiogenic effect) [2]: inhibited formation of vessels | inhibition in vivo at 20 mg/kg ([3]; HCT-116, 72 h, day 3, 20 mg/kg oral once a day, read-out: TGI (tumor growth inhibition), tumor volume): 25% | inhibition in vivo at 20 mg/kg ([3]; HCT-116, 120 h, day 5, 20 mg/kg oral once a day, read-out: TGI (tumor growth inhibition), tumor volume): 24.1% | inhibition in vivo at 20 mg/kg ([3]; HCT-116, 168 h, day 7, 20 mg/kg oral once a day, read-out: TGI (tumor growth inhibition), tumor volume): 26.5% | inhibition in vivo at 20 mg/kg ([3]; HCT-116, 240 h, day 10, 20 mg/kg oral once a day, read-out: TGI (tumor growth inhibition), tumor volume): 28.4% | inhibition in vivo at 20 mg/kg ([3]; HCT-116, 288 h, day 12, 20 mg/kg oral once a day, read-out: TGI (tumor growth inhibition), tumor volume): 28.1% | inhibition in vivo at 20 mg/kg ([3]; HCT-116, 336 h, day 14, 20 mg/kg oral once a day, read-out: TGI (tumor growth inhibition), tumor volume): 28.4% | inhibition in vivo at 20 mg/kg ([3]; HCT-116, 336 h, day 14, 20 mg/kg oral once a day, read-out: TGI (tumor growth inhibition), tumor weight): 28.1% | Tumor volume [3, 5]: 25.5 ± 7.5 mm^3 | Tumor volume [3, 6]: 70.1 ± 9.7 mm^3 | Tumor volume [3, 7]: 128.4 ± 14.0 mm^3 | Tumor volume [3, 8]: 186.6 ± 15.2 mm^3 | Tumor volume [3, 9]: 322.5 ± 19.6 mm^3 | Tumor volume [3, 10]: 476.9 ± 28.1 mm^3 | Tumor weight [3, 10]: 1703.3 ± 252.2 mg | Body weight change ([4]; day 0, 20 mg/kg oral once a day): 100.0 ± 0.0% | Body weight change [4, 5]: 103.4 ± 0.6% | Body weight change [4, 6]: 103.6 ± 2.6% | Body weight change [4, 7]: 103.8 ± 3.3% | Body weight change [4, 8]: 105.0 ± 3.1% | Body weight change [4, 9]: 103.8 ± 2.9% | Body weight change [4, 10]: 102.4 ± 3.0%
